Seven compounds from US20140378307A1, “AROMATIC PHOSPHATE ESTERS AS AGROCHEMICAL FORMULATION COMPONENT” (SYNGENTA LIMITED, priority 2011, published 2014) can be followed below.

What all share (format): in vivo
In assay [1] the test system is Chenopodium album (CHEAL), Abutilon theophrasti (ABUTH), Setaria viridis (SETVI), Xanthium strumarium (XANST). Kind of assay: Glasshouse weed kill, fomesafen with Phosflex 31L and comparison adjuvants. From the text:
(§1) Unless otherwise stated within a specific Example, all aromatic phosphate esters employed were initially formulated as 20% w′w emulsions containing 2% w/w Gohsenol®GLO3 (a polyvinyl alcohol, Nippon Gohsei, Hull, UK) and 2% Pluronic® PE10500 (an ethylene glycol-propylene glycol block copolymer, BASF Aktiengesellschaft, Ludwighsafen, Germany) as surfactants.
The efficacy of the aromatic phosphate ester Phosflex®31L (isopropylated triphenyl phosphate) as an adjuvant for the herbicide fomesafen was tested against four weed species in the glasshouse and compared to the well-known tank mix adjuvant Turbocharge® as well as to a aromatic ester lacking the a phosphate moiety, butylene glycol benzoate. An agrochemical composition was prepared containing 0.5% v/v of the adjuvant Turbocharge with the test compound in a track sprayer, and was applied at a volume of 200 litres per hectare. Fomesafen was applied at a rate of either 60 or 120 grams per hectare. The other adjuvants were applied at a rate of 0.2% v/v. Fomesafen was applied to weeds which had been grown to the 1.3 or 1.4 leaf stage. […]
(§2) Each spray test was replicated three times. The efficacy of the herbicide was assessed visually and expressed as a percentage of the leaf area killed. Samples were assessed at time periods of 7, 14 and 21 days following application. […]

For assay [2] the test system is unchanged. Kind of assay: Glasshouse weed kill, fomesafen with tricresyl phosphate, Phosflex 362, triphenyl phosphate. The settings on record: fomesafen 60 or 120 g/ha, 200 l/ha; Turbocharge 0.5% v/v, other adjuvants 0.2% v/v; leaf area killed; mean over two rates, three replicates, four weeds, 7, 14 and 21 days.
From the text: as §1
The efficacy of the aromatic phosphate esters tricresyl phosphate, Phosflex®362 (2-ethylhexyl diphenyl phosphate) and triphenyl phosphate as adjuvants were tested in a glasshouse against four weed species using the herbicide fomesafen. An agrochemical composition was prepared containing 0.5% v/v of the adjuvant Turbocharge® in a track sprayer and was applied at a volume of 200 litres per hectare. The other adjuvants were tested at a rate of 0.2% v/v. Fomesafen was applied at a rate of either 60 or 120 grams per hectare on weeds which had been grown to the 1.3 or 1.4 leaf stage. […]
as §2

The subject of assay [3] is Polygonum convolvulus (POLCO), Brachiaria platyphylla (BRAPL), Digitaria sanguinalis (DIGSA), Ambrosia artemisiifolia (AMBAR). Kind of assay: Glasshouse weed kill, mesotrione with Phosflex 31L and comparison adjuvants. The settings on record: mesotrione 30 or 60 g/ha, 200 l/ha; Tween 20 0.5% v/v, other adjuvants 0.2% v/v; mean over two rates, three replicates, four weed species, three assessment timings.
From the text: as §1
The efficacy of the aromatic phosphate ester Phosflex®31L (isopropylated triphenyl phosphate) as an adjuvant for the herbicide mesotrione was tested against four weed species in the glasshouse and compared to the known adjuvant Tween®20 as well as to a aromatic ester lacking the a phosphate moiety, butylene glycol benzoate. An agrochemical composition was prepared containing 0.5% v/v of the adjuvant Tween®20 with the test compound in a track sprayer, and was applied at a volume of 200 litres per hectare. The other adjuvants were tested at a rate of 0.2% v/v. Mesotrione was applied at a rate of either 30 or 60 grams per hectare to weeds which had been grown to the 1.3 or 1.4 leaf stage. The weed species were Polygonum convolvulus (POLCO), Brachiaria platyphylla (BRAPL), Digitaria sanguinalis (DIGSA) and Ambrosia artemisiifolia (AMBAR) […]

Assay [4] deals with Polygonum convolvulus (POLCO), Brachiaria platyphylla (BRAPL), Digitaria sanguinalis (DIGSA), Amaranthus tuberculatus (AMATU). Kind of assay: Glasshouse weed kill, mesotrione with tricresyl phosphate, Phosflex 362, triphenyl phosphate. Conditions: mesotrione 60 or 120 g/ha, 200 l/ha; Turbocharge 0.5% v/v, other adjuvants 0.2% v/v; leaf area killed; mean over two rates, three replicates, four weeds, 7, 14 and 21 days.

Assay [5] deals with Chenopodium album (CHEAL), Abutilon theophrasti (ABUTH), Setaria viridis (SETVI), Digitaria sanguinalis (DIGSA). Nature of the assay: Glasshouse weed kill, nicosulfuron with tricresyl phosphate, Phosflex 362, triphenyl phosphate. Conditions: four weed species; for efficacy as adjuvant for nicosulfuron (in words): adjuvant 0.2% v/v, conclusion from Table 7.
From the text: as §1
The efficacy of the aromatic phosphate esters tricresyl phosphate, Phosflex®362 (2-ethylhexyl diphenyl phosphate) and triphenyl phosphate were tested in a glasshouse against four weed species using the herbicide nicosulfuron. An agrochemical composition was prepared containing 0.5% v/v of the adjuvant Atplus® 411F in a track sprayer, and was applied at a volume of 200 litres per hectare. The other adjuvants were tested at a arte of 0.2% v/v. Nicosulfuron was applied at a rate of either 30 or 60 grams of pesticide per hectare to weeds which had been grown to the 1.3 or 1.4 leaf stage. The weed species were Chenopodium album (CHEAL), Abutilon theophrasti (ABUTH), Setaria viridis (SETVI) and Digitaria sanguinalis (DIGSA).
Each spray test was replicated three times. The efficacy of the herbicide was assessed visually and expressed as a percentage of the leaf area killed. Samples were assessed at time periods of 14 and 21 days following application. The results shown in Table 7 below are mean averages over the two rates of nicosulfuron, three replicates, four weed species and the two assessment timings, and are compared to the efficacy of nicosulfuron in the absence of adjuvant and nicosulfuron in the presence of the known tank mix adjuvant Atplus®411F.

Assay [6] relates to Abutilon theophrasti (ABUTH), Chenopodium album (CHEAL), Digitaria sanguinalis (DIGSA), Setaria viridis (SETVI). Nature of the assay: Glasshouse weed kill, nicosulfuron with Phosflex 31L and comparison adjuvants. The settings on record: nicosulfuron 30 or 60 g/ha, 200 l/ha; Atplus 411F 0.5% v/v, other adjuvants 0.2% v/v; leaf area killed; mean over two rates, three replicates, four weed species, 14 and 21 days.
From the text: as §1
The efficacy of the aromatic phosphate ester Phosflex®31L (isopropylated triphenyl phosphate) as an adjuvant for the herbicide nicosulfuron was tested against four weed species in the glasshouse and compared to the well-known tank mix adjuvant Atplus®411F as well as to a aromatic ester lacking the a phosphate moiety, butylene glycol benzoate. An agrochemical composition was prepared containing 0.5% v/v of the adjuvant Atplus 411F with the test compound in a track sprayer, and was applied at a volume of 200 litres per hectare. The other adjuvants were used at a rate of 0.2% v/v. Nicosulfuron was applied at a rate of either 30 or 60 grams per hectare. Nicosulfuron was applied to weeds which had been grown to the 1.3 or 1.4 leaf stage. […]
(§3) Each spray test was replicated three times. The efficacy of the herbicide was assessed visually and expressed as a percentage of the leaf area killed. Samples were assessed at time periods of 14 and 21 days following application. […]

The test system of assay [7] is Septoria tritici. Conditions: S. tritici on wheat, adjuvant 0.2% v/v, conclusion from Table 1.
Assay [8] relates to Septoria tritici. The settings on record: S. tritici on wheat, adjuvant 0.2% v/v, conclusion from Table 2.
Assay [9] has as its system Alopecurus myosuroides (ALOMY), Avena fatua (AVEFA), Lolium perenne (LOLPE), Setaria viridis (SETVI). Kind of assay: Glasshouse weed kill, pinoxaden with Phosflex 31L and comparison adjuvants. The settings on record: pinoxaden 7.5 or 15 g/ha, 200 l/ha; TEHP 0.5% v/v, other adjuvants 0.2% v/v; leaf area killed; mean over two rates, three replicates, four weed species, 14 and 21 days. The procedure: as §1
The efficacy of the aromatic phosphate ester Phosflex®31L (isopropylated triphenyl phosphate) as an adjuvant was tested in a glasshouse against four weed species using the herbicide pinoxaden. An agrochemical composition was prepared containing 0.2% v/v of the adjuvant in a track sprayer and was applied at a volume of 200 litres per hectare. Pinoxaden was applied at either 7.5 or 15 grams of pesticide per hectare on each of the weed species. The adjuvant TEHP was tested at a different rate from the other adjuvants, it being used at 0.5% v/v. The weed species and their growth stage at spraying were Alopecurus myosuroides (ALOMY; growth stage 13), Avena fatua (AVEFA; growth stage 12); Lolium perenne (LOLPE; growth stage 13), Setaria viridis (SETVI; growth stage 14).
as §3

Assay [10] has the same test system. Kind of assay: Glasshouse weed kill, pinoxaden with tricresyl phosphate, Phosflex 362, triphenyl phosphate. The settings on record: pinoxaden 7.5 or 15 g/ha, 200 l/ha; TEHP 0.5% v/v, other adjuvants 0.2% v/v; leaf area killed; mean over two rates, three replicates, four weeds, 14 and 21 days.
From the text: as §1
The efficacy of the aromatic phosphate esters tricresyl phosphate, Phosflex®362 (2-ethylhexyl diphenyl phosphate) and triphenyl phosphate were tested in a glasshouse against four weed species using the herbicide pinoxaden. An agrochemical composition was prepared containing 0.5% v/v of the adjuvant TEHP in a track sprayer and was applied at a volume of 200 litres per hectare. The other adjuvants were tested at a rate of 0.2% v/v. Pinoxaden was applied at either 7.5 or 15 grams per hectare on each of the weed species. The weed species and their growth stage at spraying were Alopecurus myosuroides (ALOMY; growth stage 13), Avena fatua (AVEFA; growth stage 12); Lolium perenne (LOLPE; growth stage 13), Setaria viridis (SETVI; growth stage 14).
as §3

Turning to `CS(=O)(=O)NC(=O)c1cc(Oc2ccc(C(F)(F)F)cc2Cl)ccc1[N+](=O)[O-]` [Fomesafen, fomesafen], the “Mean percentage kill, Mean across species” value (shortened to “Mean percentage kill”) in assay [1] (fomesafen 60 or 120 g/ha, 200 l/ha, Turbocharge 0.5% v/v, other adjuvants 0.2% v/v, leaf area killed, mean over two rates, three replicates, four weed species, 7, 14 and 21 days) was 37.7 C %; in assay [2], 14.3%.

`CS(=O)(=O)c1ccc(C(=O)C2C(=O)CCCC2=O)c([N+](=O)[O-])c1` [Mesotrione, mesotrione]: the figures for the “Mean percentage kill” value in assay [3] and in assay [4] were 47.2 B % and 34.0 A %, respectively.

Regarding `COc1cc(OC)nc(NC(=O)NS(=O)(=O)c2ncccc2C(=O)N(C)C)n1` [Nicosulfuron, nicosulfuron], the “Mean percentage kill” value in assay [5] (nicosulfuron 30 or 60 g/ha, 200 l/ha, Atplus 411F 0.5% v/v, other adjuvants 0.2% v/v, leaf area killed, mean over two rates, three replicates, 14 and 21 days) is 42.5%; in assay [6], 74.9 B %.

As to `CCCCC(CC)COP(=O)(Oc1ccccc1)Oc1ccccc1` (stereo not shown) [Phosflex®362, 2-ethylhexyl diphenyl phosphate], in the assay on Septoria tritici [7], the “efficacy as adjuvant for isopyrazam (in words)” value is “more efficacious as an adjuvant than any of the other compounds tested”. The “efficacy as adjuvant for nicosulfuron (in words)” value in assay [5] is “performing particularly well”. Also, the “efficacy as adjuvant for cyproconazole (in words)” value in the assay with Septoria tritici [8] is listed as “performed best as an adjuvant out of the compounds tested”.

Turning to `CCc1cc(C)cc(CC)c1-c1c(OC(=O)C(C)(C)C)n2n(c1=O)CCOCC2` [Pinoxaden, pinoxaden], the “Mean percentage kill” value is 17.4 D % in assay [9] and 16.0 C % in [10].

As to `O=C(OCCCCO)c1ccccc1` [the ester lacking the phosphate moiety, butylene glycol benzoate], the “efficacy as adjuvant for fomesafen (in words)” value in [1] (four weed species, adjuvant 0.2% v/v, conclusion from Table 4) is reported as “is not”.

Take “tricresyl phosphate [tricresylphosphate]”: the “efficacy as adjuvant for nicosulfuron (in words)” value in assay [5] was “performing particularly well”.
